Patent US10301295B2, “Herbicidal compounds” (Syngenta Participations AG, priority 2014, dated 2019)
Where two headings read alike, the source gives them in different places.

Tests used:
Format in all cases: in vivo
[1] = test system: Alopecurus myosuroides (ALOMY); assay: Glasshouse assay for herbicidal activity, pre-/post-emergence (percentage phytotoxicity); details: Alopecurus myosuroides, Rate 250 g/ha, 100%=total damage, 0%=no damage
Outline: (§1)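 Percentage phytotoxicity was assessed visually, 100% meaning total plant damage and 0% none, at 20 days after application for pre-emergence and 15 days for post-emergence. Plants were potted in standard soil and treated after 1 day or about 12 days of growth.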

Avena fatua (AVEFA) = assay: as above; details: Avena fatua, Rate 250 g/ha, 100%=total damage, 0%=no damage
Outline: as §1

[2] = test system: Echinochloa crus-galli (ECHCG); assay: as above; details: Echinochloa crus-galli, Rate 250 g/ha, 100%=total damage, 0%=no damage
Outline: as §1

Lolium perenne (LOLPE) = assay: as above; details: Lolium perenne, Rate 250 g/ha, 100%=total damage, 0%=no damage
Outline: as §1

wheat = assay: Post-emergence herbicidal activity against cereal crops (wheat) +/- safener, crop selectivity; details: 100%=total damage to plant, 0%=no damage; for Post-emergence herbicidal activity against wheat (percentage phytotoxicity), +CQC: 250 g/ha, plus safener cloquintocet-mexyl (CQC) applied at 50 g/ha; for percent phytotoxicity (crop damage) to wheat at 250 g/ha: Triticum aestivum, 360 h, without safener, read-out: Post-emergence herbicidal activity against wheat (percentage phytotoxicity), Wheat - CQC
Outline: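 Test plants raised in pots in a glasshouse (24/18 °C warm or 20/16 °C cool species day/night, 16 h light, 65% humidity) and treated post-emergence about 12 days after sowing. Visual percentage phytotoxicity scored 15 days after application (0% = no damage, 100% = total damage).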

[3] = 360 h, post-emergence, visual assessment 15 DAA, read-out: Post-emergence herbicidal activity (percentage phytotoxicity), ALOMY POST
[4] = 480 h, pre-emergence, visual assessment 20 DAA, read-out: Pre-emergence herbicidal activity (percentage phytotoxicity), ALOMY PRE
[5] = post-emergence, 360 h, post-emergence, visual assessment 15 DAA, read-out: Post-emergence herbicidal activity (percentage phytotoxicity), AVEFA POST
[6] = pre-emergence, 480 h, pre-emergence, visual assessment 20 DAA, read-out: Pre-emergence herbicidal activity (percentage phytotoxicity), AVEFA PRE
[7] = post-emergence, 360 h, post-emergence, visual assessment 15 DAA, read-out: Post-emergence herbicidal activity (percentage phytotoxicity), ECHCG POST
[8] = pre-emergence, 480 h, pre-emergence, visual assessment 20 DAA, read-out: Pre-emergence herbicidal activity (percentage phytotoxicity), ECHCG PRE
[9] = post-emergence, 360 h, post-emergence, visual assessment 15 DAA, read-out: Post-emergence herbicidal activity (percentage phytotoxicity), LOLPE POST
[10] = pre-emergence, 480 h, pre-emergence, visual assessment 20 DAA, read-out: Pre-emergence herbicidal activity (percentage phytotoxicity), LOLPE PRE

| SMILES | pest or weed control at 250 g/ha [1, 3] [%] | pest or weed control at 250 g/ha [1, 4] [%] | pest or weed control at 250 g/ha (Avena fatua (AVEFA); [5]) [%] | pest or weed control at 250 g/ha (Avena fatua (AVEFA); [6]) [%] | pest or weed control at 250 g/ha [2, 7] [%] | pest or weed control at 250 g/ha [2, 8] [%] | pest or weed control at 250 g/ha (Lolium perenne (LOLPE); [9]) [%] | pest or weed control at 250 g/ha (Lolium perenne (LOLPE); [10]) [%] | Post-emergence herbicidal activity against wheat (percentage phytotoxicity), +CQC (wheat) [%] | percent phytotoxicity (crop damage) to wheat at 250 g/ha (wheat) [%] |
| --- | --- | --- | --- | --- | --- | --- | --- | --- | --- | --- |
| Cc1cc(C)c(C2C(=O)CC(CCNC(=O)NC(=O)c3ccc(C(F)(F)F)cc3)C2=O)c(C)c1 (stereo not shown) [Compound A72] | 30 | 20 | 90 | 20 | 80 | 0 | 80 | 10 | 70 | 80 |
| CON=C(C)C(=O)NCCC1CC(=O)C(c2c(C)cc(-n3cc(Cl)cn3)cc2C)C1=O (stereo not shown) [Compound A38] | 70 | 70 | 80 | 70 | 100 | 100 | 80 | 70 | 30 | 70 |
| CON=C(C#N)C(=O)NCCC1CC(=O)C(c2c(C)cc(-n3cc(Cl)cn3)cc2C)C1=O (stereo not shown) [Compound A42] | 0 | 0 | 0 | 0 | 70 | 0 | 10 | 0 | 10 | 0 |
| Cc1cc(C)c(C2C(=O)CC(CCNS(=O)(=O)c3ccccc3F)C2=O)c(C)c1 (stereo not shown) [Compound A76] | 20 | 30 | 20 | 0 | 40 | 40 | 60 | 70 | 0 | 0 |
| Cc1cc(C)c(C2C(=O)CC(CCNC(=O)NC(=O)c3ccc(F)cc3C(F)(F)F)C2=O)c(C)c1 (stereo not shown) [Compound A69] | 100 | 80 | 90 | 80 | 70 | 70 | 100 | 80 | 80 | 90 |
| Cc1cc(C)c(C2C(=O)CC(CCNC(=O)NC(=O)c3ccccc3)C2=O)c(C)c1 (stereo not shown) [Compound A46] | 70 | 30 | 90 | 30 | 100 | 60 | 100 | 70 | 70 | 80 |
| Cc1cc(C)c(C2C(=O)CC(CCNC(=O)NCc3ccccc3)C2=O)c(C)c1 (stereo not shown) [Compound A7] | 10 | 0 | 90 | 0 | 90 | 0 | 70 | 0 | 0 | 20 |
| Cc1cc(-n2cc(Cl)cn2)cc(C)c1C1C(=O)CC(CCNS(=O)(=O)c2ccc(Cl)cc2)C1=O (stereo not shown) [Compound A37] | 0 | 0 | 0 | 0 | 30 | 0 | 0 | 0 | 10 | 20 |
| COc1ccc(C(=O)NC(=O)NCCC2CC(=O)C(c3c(C)cc(C)cc3C)C2=O)cc1 (stereo not shown) [Compound A57] | 90 | 80 | 50 | 0 | 80 | 100 | 100 | 70 | 20 | 80 |
| Cc1cc(-c2ncc(Cl)cc2F)cc(C)c1C1C(=O)CC(CCNC(=O)N(C)c2ccccn2)C1=O.Cl (stereo not shown) [Compound A27] | 90 | 60 | 90 | 90 | 100 | 90 | 100 | 90 | 70 | 80 |
| Cc1cc(-n2cc(Cl)cn2)cc(C)c1C1C(=O)CC(CCNC(=O)Nc2ccncn2)C1=O.Cl (stereo not shown) [Compound A33] | 40 | 60 | 40 | 40 | 80 | 70 | 30 | 0 | 10 | 40 |
| Cc1cc(C)c(C2C(=O)CC(CCNC(N)=O)C2=O)c(C)c1 (stereo not shown) [Compound A6] | 70 | 30 | 90 | 0 | 100 | 90 | 90 | 80 | 10 | 10 |
| Cc1cc(C)c(C2C(=O)CC(CCNC(=O)NC(C)(C)C)C2=O)c(C)c1 (stereo not shown) [Compound A5] | 80 | 100 | 90 | 80 | 100 | 90 | 90 | 90 | 20 | 50 |
| Cc1cc(C)c(C2C(=O)CC(CCNC(=S)Nc3ccc(F)cc3)C2=O)c(C)c1 (stereo not shown) [Compound A89] | 0 | 0 | 40 | 0 | 0 | 30 | 0 | 40 | 0 | 10 |
| Cc1cc(C)c(C2C(=O)CC(CCNC(=O)Nc3ccccn3)C2=O)c(C)c1.Cl (stereo not shown) [Compound A3] | 100 | 100 | 90 | 80 | 100 | 100 | 100 | 90 | 60 | 90 |
| CC(=NOCc1ccccc1)C(=O)NCCC1CC(=O)C(c2c(C)cc(C)cc2C)C1=O (stereo not shown) [Compound A44] | 0 | 0 | 0 | 0 | 70 | 0 | 0 | 10 | 10 | 30 |
